Assays:
Format in all cases: biochemical
[1] = molecular target: T1, CDK2 (Homo sapiens, UniProt P24941); assay: CDK2 substrate phosphorylation assay (biotinylated peptide, 32P-ATP); details: Inhibition of CDK2
T1 construct: made in house
Procedure: (§1) The compounds of the present invention have valuable pharmacologic properties. Different compounds from this class are particularly effective at inhibiting CDK2 and/or CDK4 enzymes at concentrations, which range from 0.0001 to 1 μM and additionally show specificity relative to other kinases. Substrate phosphorylation assays were carried out as follows:
Cyclin dependent protein kinase 2 assays utilized the peptide Biotin-aminohexyl-ARRPMSPKKKA-NH2 as phosphoryl group acceptor. CDK2 was expressed utilizing a baculovirus expression system and was partially purified to comprise 20-80% of total protein, with no detectable competing reactions present. Typically, assays were performed by incubating enzyme (0.2-10 nM), with and without inhibitor, peptide substrate (1-10 nM), [g-^32P]ATP (1-20 nM), and 10-20 mM Mg^2+ for periods of time generally within the range 10-120 minutes. Reactions were terminated with 0.2-2 volumes of either 20% acetic acid or 50-100 mM EDTA buffered to pH 7 (substrate consumption <20%). The buffer employed in enzyme assay was 100 mM HEPES pH 7.5 containing 0.1 mg/mL BSA and 5% DMSO. Inhibitors were diluted in 100% DMSO prior to addition into the assay. Detection of peptide phosphorylation was accomplished by scintillation counting following either collection of peptide onto phosphocellulose filters (for reactions stopped with acetic acid), collection of peptide in wells of 96 well plates coated with Streptavidin (Pierce) (reactions were stopped with EDTA), or addition of Avidin coated Scintillant impregnated beads (Scintillation Proximity Assays from Amersham, reactions were stopped with EDTA). Counts detected by any of these methodologies minus the appropriate background (assays with additional 40 mM EDTA or lacking peptide substrate) were assumed to be proportional to the reaction initial rates, and IC50s were determined by a least squares fit to the equation CPM=Vmax*(1−([I]/(K+[I])))+nsb, or −pIC50s were determined by a fit to the equation CPM=nsb+(Vmax−nsb)/(1+(x/10^x−pIC50)), where nsb are the background counts. Filters are washed four times with 75 mM phosphoric acid. Radioactivity was determined by liquid scintillation counting.

[2] = molecular target: T2, CDK4 (Homo sapiens, UniProt P11802); assay: CDK4 substrate phosphorylation assay (Rb protein, 33P-ATP); details: Inhibition of CDK4
T2 construct: made in house
T2 sequence (P11802 whole entry, species assumed): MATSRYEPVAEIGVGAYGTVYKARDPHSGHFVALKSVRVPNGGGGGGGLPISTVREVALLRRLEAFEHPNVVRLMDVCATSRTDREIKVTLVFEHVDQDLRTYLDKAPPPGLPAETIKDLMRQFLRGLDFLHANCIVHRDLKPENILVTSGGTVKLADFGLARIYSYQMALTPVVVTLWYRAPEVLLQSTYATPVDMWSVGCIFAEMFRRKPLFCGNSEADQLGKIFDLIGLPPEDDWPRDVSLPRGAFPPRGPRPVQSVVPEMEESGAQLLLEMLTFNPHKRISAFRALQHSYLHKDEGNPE
T2 sequence (P24385 whole entry partner, species assumed): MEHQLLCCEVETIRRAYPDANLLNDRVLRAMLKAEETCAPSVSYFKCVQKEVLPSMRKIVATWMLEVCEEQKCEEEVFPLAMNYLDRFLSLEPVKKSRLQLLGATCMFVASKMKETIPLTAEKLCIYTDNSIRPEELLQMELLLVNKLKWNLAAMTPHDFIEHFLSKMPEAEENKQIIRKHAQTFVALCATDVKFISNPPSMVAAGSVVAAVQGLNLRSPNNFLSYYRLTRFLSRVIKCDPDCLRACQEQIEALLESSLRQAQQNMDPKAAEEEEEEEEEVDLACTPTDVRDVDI
Procedure: as §1
Cyclin D1 and cyclin-dependent kinase 4 were expressed utilizing a baculovirus expression system. The catalytic activity of CDK4 protein was assayed by measuring the phosphorylation of Rb protein. A truncated Rb protein (residues 773-928 of the native retinoblastoma protein, fused to glutathione S-transferase to facilitate purification) was used as the phosphoryl acceptor. The assay conditions were 100 mM HEPES (N-[2-hydroxyethyl]piperzine-N′-[2-ethanesulfonic acid]), pH 7.5, 0.5 μM GST-Rb protein, 1 μCi/mL [^33P]-ATP (1 nM-20 μM), 5-20 mM MgCl2, 2.5 mM EDTA, 1 mM dithiotheitol, 0.2 mg/mL bovine serum albumin, 2% (v/v) dimethyl sulfoxide (DMSO), CDK4 enzyme (5-50 nM) in a final volume of 50 μL. Reactions were incubated for time periods of 10-60 min at 30° C. and terminated by the addition of 50 μL quench (1 mM ATP/100 mM EDTA, pH 7.0). Detection of protein phosphorylation was accomplished by scintillation counting following collection of protein in 96 well plates coated with Glutathione or trapping of protein onto phosphocellulose filters. Counts detected by these methodologies minus the appropriate background were assumed to be proportional to the reaction initial rates. IC50 values were determined by measuring enzyme activity in the presence of different inhibitor concentrations (0.1 nM to 50 μM). IC50s were determined by a least squares fit to the equation CPM=Vmax*(1−([I]/(K+[I])))+nsb, or pIC50s were determined by a fit to the equation CPM=nsb+(Vmax−nsb)/(1+(x/10^x−pIC50)), where nsb are the background counts.

[3] = molecular target: hVEGFR2 (Homo sapiens, UniProt P35968); assay: VEGFR2 HTRF assay; details: Inhibition of VEGFR2
hVEGFR2, sequence (P35968 20-1356): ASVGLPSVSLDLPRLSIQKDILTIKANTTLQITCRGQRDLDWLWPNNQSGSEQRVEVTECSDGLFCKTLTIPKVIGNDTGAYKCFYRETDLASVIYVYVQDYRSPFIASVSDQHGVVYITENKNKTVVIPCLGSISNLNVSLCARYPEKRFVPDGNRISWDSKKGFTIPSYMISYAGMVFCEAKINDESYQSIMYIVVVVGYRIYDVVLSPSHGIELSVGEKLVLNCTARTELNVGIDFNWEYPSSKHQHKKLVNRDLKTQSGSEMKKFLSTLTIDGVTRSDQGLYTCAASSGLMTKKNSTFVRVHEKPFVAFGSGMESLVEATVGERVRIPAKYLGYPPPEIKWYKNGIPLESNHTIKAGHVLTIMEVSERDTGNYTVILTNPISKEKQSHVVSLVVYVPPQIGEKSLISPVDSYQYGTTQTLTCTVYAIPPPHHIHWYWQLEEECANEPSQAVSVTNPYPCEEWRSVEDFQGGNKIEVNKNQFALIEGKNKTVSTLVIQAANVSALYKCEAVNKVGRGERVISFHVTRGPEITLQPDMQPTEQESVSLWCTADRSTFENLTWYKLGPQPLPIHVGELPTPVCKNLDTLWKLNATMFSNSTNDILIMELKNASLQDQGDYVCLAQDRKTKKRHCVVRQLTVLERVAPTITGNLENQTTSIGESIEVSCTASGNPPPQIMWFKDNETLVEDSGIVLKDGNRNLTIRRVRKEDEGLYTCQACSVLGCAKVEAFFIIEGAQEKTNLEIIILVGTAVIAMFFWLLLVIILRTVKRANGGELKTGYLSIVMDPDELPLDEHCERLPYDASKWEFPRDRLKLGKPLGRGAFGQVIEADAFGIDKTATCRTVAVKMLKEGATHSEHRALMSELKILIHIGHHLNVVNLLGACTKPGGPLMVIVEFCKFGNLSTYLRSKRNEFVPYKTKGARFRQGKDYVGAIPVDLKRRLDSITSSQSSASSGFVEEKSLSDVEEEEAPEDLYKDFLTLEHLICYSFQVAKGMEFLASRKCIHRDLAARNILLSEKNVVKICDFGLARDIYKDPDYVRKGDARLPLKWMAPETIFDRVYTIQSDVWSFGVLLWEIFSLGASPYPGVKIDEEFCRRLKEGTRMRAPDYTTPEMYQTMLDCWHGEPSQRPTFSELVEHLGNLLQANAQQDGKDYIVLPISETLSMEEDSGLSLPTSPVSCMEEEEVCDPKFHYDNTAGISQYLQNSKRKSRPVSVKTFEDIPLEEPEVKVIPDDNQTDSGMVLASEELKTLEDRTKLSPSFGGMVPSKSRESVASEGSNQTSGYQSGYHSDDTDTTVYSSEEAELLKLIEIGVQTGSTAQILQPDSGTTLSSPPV
Procedure: The compounds of the present invention elicit important and measurable pharmacological responses. Different compounds from this class are particularly effective at inhibiting VEGFR2 enzymes, as described by the VEGFR2 HTRF assay below, at concentrations, which range from 0.0001 to 1 μM.
The assays were performed in 96-well black plates. 10 nM hVEGFR2 was used to phosphorylate 0.36 μM peptide (Biotin-Ahx-EEEEYFELVAKKKK) in the presence of 75 μM ATP, 5 mM MgCl2, 0.3 mM DTT, 0.1 mg/ml BSA, and 0.1 M HEPES (pH 7.5). 10 μl 0.5 M EDTA was added to reactions as negative controls. The 50 μl kinase reaction with or without inhibitors in 5% DMSO was carried out at room temperature for 45 minutes, then stopped by 40 μl of 125 mM EDTA. 2.4 μg/ml Streptavidin-APC and 0.15 μg/ml Eu-α-pY, in the presence of 0.1 mg/ml BSA, 0.1 M HEPES (pH7.5), were added to a final volume of 140 μl. The plate was incubated for 10 min at room temperature (22° C.) and read on the Victor with the time resolved fluorescence mode by exciting at 340 nm and reading the emission at 665 nm.
• Peptide from Synpep (Dublin, Calif.) • ATP, MgCl2, DTT, BSA, HEPES, EDTA, DMSO from Sigma Streptavidin-APC from Molecular Probes (Eugene, Oreg.) • Eu-α-pY from EG&G Wallac (Gaithersburg, Md.)

| SMILES | IC50 [1] [nM] | IC50 [2] [nM] | IC50 [3] [nM] |
| --- | --- | --- | --- |
| COc1cccc(-c2cnc(Nc3ccc(N4CC(C)NC(C)C4)cc3)o2)c1 (stereo not drawn) [Example 23, N-[4-(3,5-dimethylpiperazin-1-yl)phenyl]-5-(3-methoxyphenyl)-1,3-oxazol-2-amine] | < 100 | < 1000 | < 1000 |
| COc1cccc(-c2cnc(Nc3ccc(N4CCN(C)CC4)cc3C)o2)c1 [Example 24, 5-(3-methoxyphenyl)-N-[2-methyl-4-(4-methylpiperazin-1-yl)phenyl]-1,3-oxazol-2-amine] | < 10000 | < 1000 | < 1000 |
| COc1cccc(-c2cnc(Nc3ccc(N4CCN(C)CC4)nc3)o2)c1 [Example 31, N-[5-(3-methoxyphenyl)-1,3-oxazol-2-yl]-6-(4-methylpiperazin-1-yl)pyridin-3-amine] | < 1000 | < 1000 | < 1000 |
| CCN(CC)c1ccc(Nc2ncc(-c3cccc(OC)c3)o2)cn1 [Example 35, N^2,N^2-diethyl-N^5-[5-(3-methoxyphenyl)-1,3-oxazol-2-yl]pyridine-2,5-diamine] | < 10000 | < 10000 | < 10000 |
| CCN(CC)c1ccc(Nc2ncc(-c3cccc(OC4CCCC4)c3)o2)cn1 [Example 36, N^5-{5-[3-(cyclopentyloxy)phenyl]-1,3-oxazol-2-yl}-N^2,N^2-diethylpyridine-2,5-diamine] | < 1000 | < 1000 | < 10000 |
| COc1cccc(-c2cnc(Nc3ccc(CN4CCN(C)CC4)cc3)o2)c1 [Example 38, 5-(3-methoxyphenyl)-N-{4-[(4-methylpiperazin-1-yl)methyl]phenyl}-1,3-oxazol-2-amine] | < 1000 | < 1000 | < 1000 |

Second part, the molecule after the results:

| IC50 [1] [nM] | IC50 [2] [nM] | IC50 [3] [nM] | SMILES |
| --- | --- | --- | --- |
| < 100 | < 100 | < 1000 | CN1CCN(c2ccc(Nc3ncc(-c4cccc(OC5CCCC5)c4)o3)cc2C(F)(F)F)CC1 [Example 25, 5-[3-(Cyclopentyloxy)phenyl]-N-[4-(4-methylpiperazin-1-yl)-3-(trifluoromethyl)phenyl]-1,3-oxazol-2-amine] |
| < 100 | < 100 | < 1000 | CN1CCN(c2ccc(Nc3ncc(-c4cccc(OC5CCCC5)c4)o3)cc2Cl)CC1 [Example 26, N-[3-Chloro-4-(4-methylpiperazin-1-yl)phenyl]-5-[3-(cyclopentyloxy)phenyl]-1,3-oxazol-2-amine] |
| < 100 | < 100 | < 100 | Cc1cc(Nc2ncc(-c3cccc(OC4CCCC4)c3)o2)ccc1N1CCN(C)CC1 [Example 27, 5-[3-(cyclopentyloxy)phenyl]-N-[3-methyl-4(4-methylpiperazin-1-yl)phenyl]-1,3-oxazol-2-amine] |
| < 100 | < 100 | < 100 | CN1CCN(c2ccc(Nc3ncc(-c4cccc(OC5CCCC5)c4)o3)cc2F)CC1 [Example 28, 5-[3-(Cyclopentyloxy)phenyl]-N-[3-fluoro-4-(4-methylpiperazin-1-yl)phenyl]-1,3-oxazol-2-amine] |
| < 10000 | < 1000 | < 1000 | c1cc(OC2CCCC2)cc(-c2cnc(Nc3ccc(N4CCSCC4)cc3)o2)c1 [Example 30, 5-[3-(Cyclopentyloxy)phenyl]-N-(4-thiomorpholin-4-ylphenyl)-1,3-oxazol-2-amine] |
| < 100 | < 100 | < 1000 | CN1CCN(c2ccc(Nc3ncc(-c4cccc(OC5CCCC5)c4)o3)cn2)CC1 [Example 34, N-{5-[3-(cyclopentyloxy)phenyl]-1,3-oxazol-2-yl}-6-(4-methylpiperazin-1-yl)pyridin-3-amine] |
| < 1000 | < 100 | < 1000 | Cc1cc(Nc2ncc(-c3cccc(OC4CCCC4)c3)o2)cnc1N1CCN(C)CC1 [Example 37, N-{5-[3-(cyclopentyloxy)phenyl]-1,3-oxazol-2-yl}-5-methyl-6-(4-methylpiperazin-1-yl)pyridin-3-amine] |

Reference: US20070142437A1, “CHEMICAL COMPOUNDS” (priority 2005, published 2007)
